This note sets out measurements from ChEMBL document CHEMBL1158143, “Zinagrandinolides A-C, cytotoxic delta-elemanolide-type sesquiterpene lactones from Zinnia grandiflora” (J Nat Prod, 2006).

One assay concerns NCI-H460. The assay is described as follows: Cytotoxicity against human NCI-H460 cells after 24 hrs by MTT assay. The conditions noted are these: NCI-H460, 24 h. In kind it is functional, cell-based.
The test system of the next assay is MCF7. The assay is described as follows: Cytotoxicity against human MCF7 cells after 24 hrs by MTT assay. Type of assay: functional, cell-based. The following applies: MCF7, 24 h.
The test system of the next assay is SF-268. The assay is described as follows: Cytotoxicity against human SF-268 cells after 24 hrs by MTT assay. Type of assay: functional, cell-based. The conditions noted are these: SF-268, 24 h.
The test system of the next assay is MIA PaCa-2. In words: Cytotoxicity against human MIA PaCa2 cells after 24 hrs by MTT assay. Type of assay: functional, cell-based. The following applies: MIA PaCa-2, 24 h.
Assay [1] is described as follows: Cytotoxicity against human WI38 cells after 24 hrs by MTT assay. In kind it is cell-based. The conditions noted are these: WI-38, 24 h.

With `C=C1C(=O)O[C@H]2[C@@H](OC(C)=O)[C@@H]1[C@H](OC(=O)C(C)(C)O)[C@H](C(=C)C=O)[C@@]2(C)[C@@H]1CO1` (relative stereo), the IC50 in the assay on NCI-H460 came out at 970 nM; in the assay with MCF7, 520 nM; in the assay on SF-268, 640 nM; in the assay with MIA PaCa-2, 440 nM; in assay [1], 760 nM.
For the compound `COc1cccc2c1C(=O)c1c(O)c3c(c(O)c1C2=O)C[C@@](O)(C(=O)CO)C[C@@H]3O[C@H]1C[C@H](N)[C@H](O)[C@H](C)O1` [DOXORUBICIN], the IC50 was 10 nM in the assay with NCI-H460 and 300 nM in assay [1].
Consider `C=C[C@@]1(C)[C@H]2OC(=O)C(=C)[C@H]([C@@H]2OC(C)=O)[C@H](OC(=O)C(C)(O)CC)[C@@H]1C(=C)C=O` (relative stereo) [ZINAGRANDINOLIDE B], for which the IC50 in the assay on NCI-H460 is 250 nM; in the assay with MCF7, 380 nM; with SF-268 it was 300 nM; with MIA PaCa-2 it was 210 nM; in assay [1], 430 nM.
In the case of `C=C[C@@]1(C)[C@H]2OC(=O)C(=C)[C@H]([C@@H]2OC(C)=O)[C@H](OC(=O)C(C)(C)O)[C@@H]1C(=C)C=O` (relative stereo) [ZINAGRANDINOLIDE C], the IC50 with NCI-H460 came out at 270 nM; in the assay on MCF7 it was 550 nM; in the assay on SF-268, 440 nM; in the assay with MIA PaCa-2 it was 320 nM; in assay [1], 640 nM.
With `C=C1C(=O)O[C@H]2[C@@H](OC(C)=O)[C@@H]1[C@H](OC(=O)C(C)(O)CC)[C@H](C(=C)C=O)[C@@]2(C)[C@@H]1CO1` (relative stereo) [ZINAGRANDINOLIDE A], the IC50 with NCI-H460 came out at 450 nM; in the assay on MCF7, 510 nM; in the assay on SF-268, 290 nM; with MIA PaCa-2, 220 nM; in assay [1], 690 nM.
